These results are taken from patent US6054598A, “Synthesis of 2-alkoxyestradiols” (Pharm-Eco Laboratories, Inc., priority 1998, dated 2000).

What is called IC50 is the concentration needed to halve the response being measured.

Like-named read-outs stand apart in the source and are kept apart here.

Data set [1] concerns SF-539 central nervous system (CNS) cancer cells. As to the kind of experiment: NCI anticancer screen, cytotoxicity, SF-539 central nervous system (CNS) cancer cells. It counts as cell-based. The conditions noted are these: Homo sapiens. An excerpt:
(§1) The effects of the analogs on cancer cell growth was investigated in the National Cancer Institute (NCI) Developmental Therapeutics Program's in vitro panel of approximately 55 cell lines (Grever et al., Seminars in Oncology 19:622 (1992), Alley et al., Cancer Research 48:589 (1988) and Montes et al., J. National Cancer Institute 83:757 (1991)).

The test system of a further data set is solid tumors. The conditions noted are these: in mice; Fotsis et al., Nature 368:237 (1994); cited from earlier work.
Data set [2] relates to HCT-116 colon cancer cells. As to the kind of experiment: NCI anticancer screen, cytotoxicity, HCT-116 colon cancer cells. It counts as cell-based. The settings on record: Homo sapiens.
Excerpt: as §1

A further data set has as its system UACC-62 melanoma cells. Put plainly: NCI anticancer screen, cytotoxicity, UACC-62 melanoma cells. It counts as cell-based. The conditions noted are these: Homo sapiens.
Excerpt: as §1

The subject of the next data set is tubulin. As to the kind of experiment: Inhibition of polymerization of purified tubulin. The data set is classed as biochemical, bovine. The conditions noted are these: for IC50: extent of polymerization after 20 min incubation, 26° C., 350 nm, read-out: Inhibn of Tubulin Polymn IC50. The method, then: Electrophoretically homogeneous tubulin was purified from bovine brain as described previously (Hamel et al., Biochemistry 23:4173-4184 (1984)). Determination of IC50 values for the polymerization of purified tubulin was performed as described in D'Amato et al. Proc. Natl. Acad. Sci. U.S.A. 91:3964-3968 (1994). Tubulin was preincubated at 26° C. with varying compound concentrations, reaction mixtures were chilled on ice, GTP (required for the polymerization reaction) was added, and polymerization was followed at 26° C. by turbidimetry at 350 nm in Gilford recording spectrophotometers equipped with electronic temperature controllers. Four instruments were used, and two control reaction mixtures were present in each experiment. The extent of polymerization after a 20 min incubation was determined (the values for the two controls were usually within 5% of each other). IC50 values were determined graphically. […] Inhibition of colchicine binding to tubulin was performed as described previously (D. Amato et al., Proc. Natl. Acad. Sci. U.S.A. 91:3964-3968 (1994)). […] Incubation was for 30 min at 37° C.

The subject of data set [3] is HOP-62 non-small-cell lung cancer cells. As to the kind of experiment: NCI anticancer screen, cytotoxicity, HOP-62 non-small-cell lung cancer cells. It counts as cell-based. The conditions noted are these: Homo sapiens.
Excerpt: as §1

In data set [4] the test system is OVCAR ovarian cancer cells. As to the kind of experiment: NCI anticancer screen, cytotoxicity, OVCAR ovarian cancer cells. The data set is classed as cell-based. The settings on record: Homo sapiens, read-out: cytotoxicity GI50, Ovarian OVCAR.
Excerpt: as §1

For data set [5], the system named is human cancer cell lines (approximately 55). As to the kind of experiment: NCI anticancer screen, in vitro panel of approximately 55 cell lines. It counts as cell-based. The settings on record: for GI50: read-out: cytotoxicity MGM (mean graph midpoint for all human cancer cell lines tested).
Excerpt: as §1

Data set [6] relates to DU-145 prostate cancer cells. As to the kind of experiment: NCI anticancer screen, cytotoxicity, DU-145 prostate cancer cells. It counts as cell-based. The settings on record: Homo sapiens.
Excerpt: as §1

Data set [7] concerns SN12--C renal cancer cells. Put plainly: NCI anticancer screen, cytotoxicity, SN12-C renal cancer cells. The data set is classed as cell-based. The conditions noted are these: Homo sapiens, SN12C, read-out: cytotoxicity GI50, Renal SN12-C.
Excerpt: as §1

Data set [8] concerns MDA-MB-435 breast cancer cells. As to the kind of experiment: NCI anticancer screen, cytotoxicity, MDA-MB-435 breast cancer cells. It counts as cell-based. The conditions noted are these: Homo sapiens.
Excerpt: as §1

Where [9] appears, read: SF-539, read-out: cytotoxicity GI50, CNS SF-539.
Where [10] appears, read: HCT-116, read-out: cytotoxicity GI50, Colon HCT-116.
Setting [11] is: UACC-62, read-out: cytotoxicity GI50, Melanoma UACC-62.
Setting [12] is: HOP-62, read-out: cytotoxicity GI50, Lung HOP-62.
Where [13] appears, read: DU-145, read-out: cytotoxicity GI50, Prostate DU-145.
[14] abbreviates: MDA-MB-435, read-out: cytotoxicity GI50, Breast MDA-MB-435.

As for `COc1cc2c(cc1O)CC[C@@H]1[C@@H]2CC[C@]2(C)[C@@H](O)CC[C@@H]12` [Compound 1, 2-methoxy estradiol, reference compound], the GI50 in [1] (SF-539, concentration corresponding to 50% growth inhibition, read-out: cytotoxicity GI50, CNS SF-539) is 320 nM; in [2] (HCT-116, concentration corresponding to 50% growth inhibition, read-out: cytotoxicity GI50, Colon HCT-116) it was 470 nM; with UACC-62 melanoma cells (UACC-62, concentration corresponding to 50% growth inhibition, read-out: cytotoxicity GI50, Melanoma UACC-62), 360 nM; in data set [3] (HOP-62, concentration corresponding to 50% growth inhibition, read-out: cytotoxicity GI50, Lung HOP-62) it was 700 nM; in data set [4] (OVCAR, concentration corresponding to 50% growth inhibition) it was 210 nM; in data set [5] (approximately 55 human cancer cell lines, GI50) it was 1300 nM. Moreover, the GI50 in [6] (DU-145, concentration corresponding to 50% growth inhibition, read-out: cytotoxicity GI50, Prostate DU-145) was determined as 1800 nM; in data set [7] (SN12-C, concentration corresponding to 50% growth inhibition), 950 nM; in [8] (MDA-MB-435, concentration corresponding to 50% growth inhibition, read-out: cytotoxicity GI50, Breast MDA-MB-435), 80 nM. For the same molecule, the “apparent signs of toxicity at tumor growth inhibiting doses” value with solid tumors is recorded as “no apparent signs of toxicity”. Also, the “inhibition of growth of solid tumors” value in the data set on solid tumors was “inhibits their growth”. The “inhibition of neovascularization of solid tumors” value in the data set with solid tumors is “potent inhibitor of neovascularization of solid tumors”. For the same molecule, the IC50 in the data set on tubulin came out at 2900 ± 600 nM.

For the molecule `C[C@]12CC[C@@H]3c4cc(OCC(F)(F)F)c(O)cc4CC[C@H]3[C@@H]1CC[C@@H]2O` [Compound 9, 2-(2',2',2'-Trifluoroethoxy)estra-1,3,5(10)-Trien-3,17β-Diol], the GI50 amounted to 1380 nM in data set [1] (setting [9]); 3220 nM in data set [2] (setting [10]); 2320 nM in the data set with UACC-62 melanoma cells (setting [11]); 11600 nM in [3] (setting [12]); 460 nM in data set [4]; 2630 nM in [5] (Homo sapiens). Moreover, the GI50 turned out to be 7050 nM in data set [6] (setting [13]), 4460 nM in data set [7] and 280 nM in data set [8] (setting [14]). Moreover, the IC50 in the data set with tubulin is 1700 nM.

Take `CCOc1cc2c(cc1O)CC[C@@H]1[C@@H]2CC[C@]2(C)[C@@H](O)CC[C@@H]12` [Compound 10, 2-Ethoxyestra-1,3,5(10)-trien03,17β-diol]: the GI50 was 14 nM in [1] (setting [9]); 26 nM in data set [2] (setting [10]); 16 nM with UACC-62 melanoma cells (setting [11]); 18 nM in data set [3] (setting [12]); 16 nM in data set [4]; 76 nM in [5] (Homo sapiens). Besides, the GI50 in data set [6] (setting [13]) is 65 nM; in [7], 39 nM; in [8] (setting [14]), less than 10 nM. For the same molecule, the “activity on tubulin polymerization relative to 2-methoxy estradiol (1)” value in the data set with tubulin (compared with 2-methoxy estradiol (1)) was “over three times more active”. For the same molecule, in the data set on tubulin, the IC50 stood at 910 ± 500 nM. The “activity against all the cell lines listed in Table 1 relative to 2-methoxy estradiol (1)” value in data set [5] (all the cell lines listed in Table 1, compared with 2-methoxy estradiol (1)) is reported as “more active”.
